Measurements: patent US10696651B2, “Heterocyclic compound” (Takeda Pharmaceutical Company Limited, priority 2016, dated 2020)
Counter-ions that a name gives are not always drawn. Like-named read-outs stand apart in the source and are kept apart here.

Target: T1, human GCN2 full-length protein (Homo sapiens, UniProt Q9P2K8)
T1 construct: purchased Carna Biosciences, Inc
Test: GCN2 enzyme inhibition assay (LanthaScreen TR-FRET)
Assay type: biochemical
Details: GCN2 enzyme inhibitory activity at compound concentration of 3 μM, read-out: inhibitory rate
Method: GCN2 enzyme was preserved at -70° C. and used. The GCN2 enzyme inhibitory activity of the test compound was measured by the LanthaScreenTR-FRET (Time Resolved Fluorescence Resonance Energy Transfer) method (manufactured by ThermoFisher). […] Then, GCN2 enzyme solution diluted with the assay buffer was added by 2 μL to each well. The enzyme solution was not added to a part of the wells to give a control group. After incubation at room temperature for 1 hr, 570 μM ATP solution containing 390 nM […] physiological protein substrate (ThermoFisher) was added by 2 μL. After reaction at room temperature for 1 hr, TR-FRET Dilution Buffer (ThermoFisher) containing 4 nM Terbium-labeled anti-elF2alpha [[…]] antibody (ThermoFisher) dissolved therein was added by 2 μL to each well. After standing at room temperature for 1 hr, time decomposition fluorescence measurement was performed on platereader Envision (manufactured by PerkinElmer).

T1 sequence (Q9P2K8 whole entry): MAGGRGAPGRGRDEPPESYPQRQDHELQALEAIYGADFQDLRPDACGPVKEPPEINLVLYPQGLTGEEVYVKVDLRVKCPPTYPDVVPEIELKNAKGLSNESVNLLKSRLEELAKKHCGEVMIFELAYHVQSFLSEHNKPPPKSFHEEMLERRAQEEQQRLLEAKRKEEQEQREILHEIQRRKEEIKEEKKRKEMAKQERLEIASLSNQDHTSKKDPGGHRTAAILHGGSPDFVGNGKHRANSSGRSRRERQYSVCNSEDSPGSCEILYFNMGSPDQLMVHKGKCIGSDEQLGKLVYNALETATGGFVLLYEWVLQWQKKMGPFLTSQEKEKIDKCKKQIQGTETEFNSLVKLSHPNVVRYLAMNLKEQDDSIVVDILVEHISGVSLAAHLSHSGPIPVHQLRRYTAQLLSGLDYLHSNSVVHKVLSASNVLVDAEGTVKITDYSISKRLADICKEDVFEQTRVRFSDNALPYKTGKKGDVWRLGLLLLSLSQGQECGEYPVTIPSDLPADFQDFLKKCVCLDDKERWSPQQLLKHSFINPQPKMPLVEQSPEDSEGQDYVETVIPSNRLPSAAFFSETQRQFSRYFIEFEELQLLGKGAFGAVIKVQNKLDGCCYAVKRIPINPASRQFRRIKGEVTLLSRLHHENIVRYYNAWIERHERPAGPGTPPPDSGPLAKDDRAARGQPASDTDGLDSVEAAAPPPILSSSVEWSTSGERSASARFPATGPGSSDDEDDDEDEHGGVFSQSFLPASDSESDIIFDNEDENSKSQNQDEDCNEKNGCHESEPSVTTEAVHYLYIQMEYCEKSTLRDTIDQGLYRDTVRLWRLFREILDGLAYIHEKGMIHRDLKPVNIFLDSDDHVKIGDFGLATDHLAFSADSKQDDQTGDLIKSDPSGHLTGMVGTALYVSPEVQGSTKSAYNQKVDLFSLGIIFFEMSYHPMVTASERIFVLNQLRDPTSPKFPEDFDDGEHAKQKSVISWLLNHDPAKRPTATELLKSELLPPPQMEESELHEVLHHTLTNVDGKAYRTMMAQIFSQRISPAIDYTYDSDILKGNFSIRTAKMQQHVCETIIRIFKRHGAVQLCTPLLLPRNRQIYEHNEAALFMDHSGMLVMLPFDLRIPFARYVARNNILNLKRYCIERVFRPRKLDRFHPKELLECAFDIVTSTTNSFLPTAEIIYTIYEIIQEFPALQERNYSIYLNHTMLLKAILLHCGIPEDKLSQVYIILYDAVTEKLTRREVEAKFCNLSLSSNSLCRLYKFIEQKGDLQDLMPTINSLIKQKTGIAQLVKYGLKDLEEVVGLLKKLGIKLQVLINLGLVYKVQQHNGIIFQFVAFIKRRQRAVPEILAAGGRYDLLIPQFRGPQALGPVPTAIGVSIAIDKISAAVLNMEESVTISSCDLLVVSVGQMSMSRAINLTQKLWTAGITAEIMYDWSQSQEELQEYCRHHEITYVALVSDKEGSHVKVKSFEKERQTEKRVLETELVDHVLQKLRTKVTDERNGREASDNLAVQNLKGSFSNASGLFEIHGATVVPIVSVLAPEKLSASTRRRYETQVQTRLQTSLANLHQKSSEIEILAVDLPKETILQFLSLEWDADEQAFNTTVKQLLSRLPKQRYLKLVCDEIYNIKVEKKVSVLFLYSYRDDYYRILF

inhibition at 3 µM (Table 3-1) [%] | inhibition at 3 µM (Table 3-2) [%] | SMILES
100 | – | COc1ncc(Cl)cc1S(=O)(=O)Nc1ccc(F)c(C#Cc2cnc(N)c(C)n2)c1F [Example 110, N-(3-((5-amino-6-methylpyrazin-2-yl)ethynyl)-2,4-difluorophenyl)-5-chloro-2-methoxypyridine-3-sulfonamide]
97 | – | Cc1cc(C)cc(S(=O)(=O)Nc2ccc(F)c(C#Cc3cnc4[nH]ncc4c3)c2F)c1 [Example 111, N-(2,4-difluoro-3-(1H-pyrazolo[3,4-b]pyridin-5-ylethynyl)phenyl)-3,5-dimethylbenzenesulfonamide TFA Salt]
99 | – | Cc1ccc(C)c(S(=O)(=O)Nc2ccc(F)c(C#Cc3cnc4[nH]ncc4c3)c2F)c1 [Example 112, N-(2,4-difluoro-3-(1H-pyrazolo[3,4-b]pyridin-5-ylethynyl)phenyl)-2,5-dimethylbenzenesulfonamide TFA Salt]
100 | – | COc1ncc(Cl)cc1S(=O)(=O)Nc1cccc(C#Cc2cnc(N)nc2)c1F [Example 123, N-(3-((2-aminopyrimidin-5-yl)ethynyl)-2-fluorophenyl)-5-chloro-2-methoxypyridine-3-sulfonamide]
100 | – | COc1ncc(Cl)cc1S(=O)(=O)Nc1ccc(Cl)c(C#Cc2cnc(N)nc2)c1F [Example 124, N-(3-((2-aminopyrimidin-5-yl)ethynyl)-4-chloro-2-fluorophenyl)-5-chloro-2-methoxypyridine-3-sulfonamide]
100 | – | COc1ncc(Cl)cc1S(=O)(=O)Nc1ccc(F)c(C#Cc2cnc(N)nc2)c1Cl [Example 125, N-(3-((2-aminopyrimidin-5-yl)ethynyl)-2-chloro-4-fluorophenyl)-5-chloro-2-methoxypyridine-3-sulfonamide]
100 | – | COc1ncc(Cl)cc1S(=O)(=O)Nc1cccc(C#Cc2cnc(N)nc2)c1Cl [Example 126, N-(3-((2-aminopyrimidin-5-yl)ethynyl)-2-chlorophenyl)-5-chloro-2-methoxypyridine-3-sulfonamide]
– | 99 | COc1c(CO)cc(Cl)cc1S(=O)(=O)Nc1ccc(F)c(C#Cc2cnc(N)c(C)n2)c1F [Example 131, N-(3-((5-amino-6-methylpyrazin-2-yl)ethynyl)-2,4-difluorophenyl)-5-chloro-3-(hydroxymethyl)-2-methoxybenzenesulfonamide]
– | 99 | Nc1ncc(C#Cc2c(F)ccc(NS(=O)(=O)c3cc(Cl)cnc3C(F)(F)F)c2F)cn1 [Example 136, N-(3-((2-aminopyrimidin-5-yl)ethynyl)-2,4-difluorophenyl)-5-chloro-2-(trifluoromethyl)pyridine-3-sulfonamide]

Second part, the compound before the results:

SMILES | inhibition at 3 µM (Table 3-1) [%] | inhibition at 3 µM (Table 3-2) [%]
Cc1ncc(Cl)cc1S(=O)(=O)Nc1ccc(F)c(C#Cc2cnc(N)nc2)c1F [Example 3, N-(3-((2-aminopyrimidin-5-yl)ethynyl)-2,4-difluorophenyl)-5-chloro-2-methylpyridine-3-sulfonamide] | 99 | –
Nc1ncc(C#Cc2c(F)ccc(NS(=O)(=O)c3cc(Cl)ccc3C(F)(F)F)c2F)cn1 [Example 6, N-(3-((2-aminopyrimidin-5-yl)ethynyl)-2,4-difluorophenyl)-5-chloro-2-(trifluoromethyl)benzenesulfonamide] | 99 | –
Nc1ncc(C#Cc2c(F)ccc(NS(=O)(=O)c3cc(Cl)cc4c3OCC4)c2F)cn1 [Example 9, N-(3-((2-aminopyrimidin-5-yl)ethynyl)-2,4-difluorophenyl)-5-chloro-2,3-dihydro-1-benzofuran-7-sulfonamide] | 99 | –
O=S(=O)(Nc1ccc(F)c(C#Cc2cnc(NC3CC3)nc2)c1F)c1cc(Cl)ccc1Cl [Example 11, 2,5-dichloro-N-(3-((2-(cyclopropylamino)pyrimidin-5-yl)ethynyl)-2,4-difluorophenyl)benzenesulfonamide TFA Salt] | 99 | –
Nc1ncc(C#Cc2c(F)ccc(NS(=O)(=O)c3cc(Cl)ccc3OC(F)(F)F)c2F)cn1 [Example 12, N-(3-((2-aminopyrimidin-5-yl)ethynyl)-2,4-difluorophenyl)-5-chloro-2-(trifluoromethoxy)benzenesulfonamide] | 99 | –
O=S(=O)(Nc1ccc(F)c(C#Cc2cnc(NC3CCOC3)nc2)c1F)c1cc(Cl)ccc1Cl (stereo not drawn) [Example 16, 2,5-dichloro-N-(2,4-difluoro-3-((2-(tetrahydrofuran-3-ylamino)pyrimidin-5-yl)ethynyl)phenyl)benzenesulfonamide TFA Salt] | 100 | –
Nc1ncc(C#Cc2c(F)ccc(NS(=O)(=O)c3cc(Cl)ccc3OC(F)F)c2F)cn1 [Example 21, N-(3-((2-aminopyrimidin-5-yl)ethynyl)-2,4-difluorophenyl)-5-chloro-2-(difluoromethoxy)benzenesulfonamide] | 99 | –
C[C@H](CO)Nc1ncc(C#Cc2c(F)ccc(NS(=O)(=O)c3cc(Cl)ccc3Cl)c2F)cn1 [Example 22, 2,5-dichloro-N-(2,4-difluoro-3-((2-(((2R)-1-hydroxypropan-2-yl)amino)pyrimidin-5-yl)ethynyl)phenyl)benzenesulfonamide TFA Salt] | 99 | –
Nc1ncc(C#Cc2c(F)ccc(NS(=O)(=O)c3cc(Cl)cc(Cl)c3)c2F)cn1 [Example 27, N-(3-((2-aminopyrimidin-5-yl)ethynyl)-2,4-difluorophenyl)-3,5-dichlorobenzenesulfonamide] | 95 | –
O=S(=O)(Nc1ccc(F)c(C#Cc2cnc(NCCCO)nc2)c1F)c1cc(Cl)ccc1Cl [Example 28, 2,5-dichloro-N-(2,4-difluoro-3-((2-((3-hydroxypropyl)amino)pyrimidin-5-yl)ethynyl)phenyl)benzenesulfonamide TFA Salt] | 99 | –
N#Cc1ccc(Cl)cc1S(=O)(=O)Nc1ccc(F)c(C#Cc2cnc(N)nc2)c1F [Example 29, N-(3-((2-aminopyrimidin-5-yl)ethynyl)-2,4-difluorophenyl)-5-chloro-2-cyanobenzenesulfonamide] | 99 | –
CCNc1ncc(C#Cc2c(F)ccc(NS(=O)(=O)c3cc(Cl)ccc3Cl)c2F)cn1 [Example 30, 2,5-dichloro-N-(3-((2-(ethylamino)pyrimidin-5-yl)ethynyl)-2,4-difluorophenyl)benzenesulfonamide TFA Salt] | 98 | –
O=S(=O)(Nc1ccc(F)c(C#Cc2cnc(N[C@H]3CC[C@H](O)CC3)nc2)c1F)c1cc(Cl)ccc1Cl [Example 32, 2,5-dichloro-N-(2,4-difluoro-3-((2-((trans-4-hydroxycyclohexyl)amino)pyrimidin-5-yl)ethynyl)phenyl)benzenesulfonamide TFA Salt] | 99 | –
Nc1ncc(C#Cc2c(F)ccc(NS(=O)(=O)c3cc(Cl)ccc3Cl)c2F)c(N)n1 [Example 34, 2,5-dichloro-N-(3-((2,4-diaminopyrimidin-5-yl)ethynyl)-2,4-difluorophenyl)benzenesulfonamide] | 98 | –
Nc1ncc(C#Cc2c(F)ccc(NS(=O)(=O)c3cc(C(F)(F)F)ccc3Cl)c2F)cn1 [Example 35, N-(3-((2-aminopyrimidin-5-yl)ethynyl)-2,4-difluorophenyl)-2-chloro-5-(trifluoromethyl)benzenesulfonamide] | 95 | –
O=S(=O)(Nc1ccc(F)c(C#Cc2cnc(NCCO)nc2)c1F)c1cc(Cl)ccc1Cl [Example 36, 2,5-dichloro-N-(2,4-difluoro-3-((2-((2-hydroxyethyl)amino)pyrimidin-5-yl)ethynyl)phenyl)benzenesulfonamide TFA Salt] | 99 | –
Cc1ncc(Cl)cc1S(=O)(=O)Nc1ccc(F)c(C#Cc2cnc(NC(C)C)nc2)c1F [Example 105, 5-chloro-N-(2,4-difluoro-3-((2-(isopropylamino)pyrimidin-5-yl)ethynyl)phenyl)-2-methylpyridine-3-sulfonamide] | 100 | –
COc1ncc(Cl)cc1S(=O)(=O)Nc1ccc(F)c(C#Cc2cnc(NC(C)C)nc2)c1F [Example 106, 5-chloro-N-(2,4-difluoro-3-((2-(isopropylamino)pyrimidin-5-yl)ethynyl)phenyl)-2-methoxypyridine-3-sulfonamide] | 99 | –
COc1ncc(Cl)cc1S(=O)(=O)Nc1ccc(F)c(C#Cc2cnc(NCC(C)(C)O)nc2)c1F [Example 107, 5-chloro-N-(2,4-difluoro-3-((2-((2-hydroxy-2-methylpropyl)amino)pyrimidin-5-yl)ethynyl)phenyl)-2-methoxypyridine-3-sulfonamide] | 99 | –
COc1ncc(Cl)cc1S(=O)(=O)Nc1ccc(F)c(C#Cc2cnc(NC(C)(C)CO)nc2)c1F [Example 108, 5-chloro-N-(2,4-difluoro-3-((2-((1-hydroxy-2-methylpropan-2-yl)amino)pyrimidin-5-yl)ethynyl)phenyl)-2-methoxypyridine-3-sulfonamide] | 99 | –
COc1ncc(Cl)cc1S(=O)(=O)Nc1ccc(F)c(C#Cc2cnc(N)nn2)c1F [Example 109, N-(3-((3-amino-1,2,4-triazin-6-yl)ethynyl)-2,4-difluorophenyl)-5-chloro-2-methoxypyridine-3-sulfonamide] | 99 | –
